Assay results as given in publication PMC9249579, “Strawberry fruit FanCXE1 carboxylesterase is involved in the catabolism of volatile esters during the ripening process” (Horticulture Research, 2022).

The compounds below were run on T1, FanCXE1 (assay: colorimetric naphthol release (DBLS reagent, […] nm)). Conditions: optimum pH (7-7.5) and temperature (25-30°C), 20 min; semipurified GST fusion.
T1 construct: full-length, 981 bp ORF (326 residues from ORF length), 37 kDa; N-terminal GST fusion (pGEX-4T-1), tag kept, 64 kDa; E. coli, semipurified on GST-sepharose; Gly-82-Gly-83 oxyanion hole
Assay type: biochemical, Fragaria x ananassa

SMILES | Km [µM]
CC(=O)Oc1cccc2ccccc12 [α-Naphthyl acetate] | 678 ± 170
CCCC(=O)Oc1cccc2ccccc12 [α-Naphthyl butyrate] | 1580 ± 190
CCCCCC(=O)Oc1ccc2ccccc2c1 [β-Naphthyl hexanoate] | 572 ± 250
